In ChEMBL document CHEMBL1201862, “PubChem BioAssay data set” (2004):
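96-well plates; 48 h exposure; 5 concentrations. Endpoints by linear interpolation between flanking doses. Not reached: highest tested concentration assigned. GI50: concentration for 50% inhibition of growth.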 Calls of active or inactive are those of the source. No stated cut-off is given here; in the data, active = GI50 up to about 1.1 µM and inactive = higher.

Tests used:
Assay in all cases: NCI tumour cell line growth inhibition, 48 h
LXFL 529 = test system: LXFL 529
M19-MEL = test system: M19-MEL
SNB-78 = test system: SNB-78
KM-20L2 = test system: KM-20L2
DLD-1 = test system: DLD-1
DMS-273 = test system: DMS-273
RXF 631 = test system: RXF 631
XF498 = test system: XF498
HOP-18 = test system: HOP-18

Row | SMILES | GI50 (LXFL 529) | GI50 (M19-MEL) | GI50 (SNB-78) | GI50 (KM-20L2) | GI50 (DLD-1) | GI50 (DMS-273) | GI50 (RXF 631) | GI50 (XF498) | GI50 (HOP-18)
1 | Clc1ccc2nc(-c3ccccc3)nc(Cl)c2c1 | 52.7 µM (inactive) | 58.2 µM (inactive) | 88.1 µM (inactive) | > 100 µM (inactive) | 60.1 µM (inactive) | 55.5 µM (inactive) | 29.6 µM (inactive) | – | –
2 | COc1c(O)c2c(c3cc(C(=O)N4CCc5c4c(O)c(OC)c4[nH]c(C(=O)N6CC7CC78C6=CC(=O)c6[nH]cc(C)c68)cc54)[nH]c13)CCN2C(N)=O (configuration not stated) [CC-1065] | 0.00834 µM (active) | 0.0048 µM (active) | 0.00404 µM (active) | 0.00334 µM (active) | 0.00103 µM (active) | 0.00142 µM (active) | – | – | –
3 | Nc1cc(=O)n(-c2ccccc2)c(=S)n1-c1ccccc1 | > 100 µM (inactive) | > 100 µM (inactive) | > 100 µM (inactive) | > 100 µM (inactive) | > 100 µM (inactive) | > 100 µM (inactive) | – | > 100 µM (inactive) | –
4 | Oc1ccc([Te]CCNCC[Te]c2ccc(O)cc2)cc1 | 3.41 µM (inactive) | 7.29 µM (inactive) | 22 µM (inactive) | 14.4 µM (inactive) | 23 µM (inactive) | 18.2 µM (inactive) | 6.05 µM (inactive) | 5.11 µM (inactive) | 26.4 µM (inactive)
5 | O=c1[nH]c(Br)nc2c(Br)c[nH]c12 | > 100 µM (inactive) | > 100 µM (inactive) | > 100 µM (inactive) | > 100 µM (inactive) | > 100 µM (inactive) | > 100 µM (inactive) | > 100 µM (inactive) | > 100 µM (inactive) | > 100 µM (inactive)
6 | CC(C)(C=O)CC(C#N)/C(=N\NC(N)=O)C(=O)Nc1ccccc1C(N)=O (configuration not stated) | > 100 µM (inactive) | > 100 µM (inactive) | > 100 µM (inactive) | > 100 µM (inactive) | – | – | – | > 100 µM (inactive) | –
7 | O=C(O)c1cc(=O)c2[nH]c3ccccc3c2s1 | > 100 µM (inactive) | > 100 µM (inactive) | > 100 µM (inactive) | > 100 µM (inactive) | > 100 µM (inactive) | – | > 100 µM (inactive) | > 100 µM (inactive) | –
8 | COc1ccc(C[C@H](N)C(=O)NC2C(CO)OC(n3cnc4c(N(C)C)ncnc43)C2O)cc1 (some centres not stated) | 0.121 µM (active) | 0.296 µM (active) | 0.213 µM (active) | 0.513 µM (active) | 1.11 µM (active) | 0.258 µM (active) | 1 µM (active) | 0.0458 µM (active) | 2.13 µM (inactive)
9 | N#Cc1cc(NC(=O)c2ccccc2)c(=O)n2c1[nH]c1ccccc12 | 33 µM (inactive) | 30.1 µM (inactive) | 35 µM (inactive) | 32.7 µM (inactive) | 28.9 µM (inactive) | 30.1 µM (inactive) | 46.9 µM (inactive) | 31.4 µM (inactive) | 7.45 µM (inactive)
10 | CCc1cccc(C(C)C)c1NC(=O)C(=O)C(Cc1nc2ccccc2nc1O)C(=O)OC (configuration not stated) | > 100 µM (inactive) | > 100 µM (inactive) | – | > 100 µM (inactive) | > 100 µM (inactive) | 61.4 µM (inactive) | – | > 100 µM (inactive) | > 100 µM (inactive)
11 | CCS(CC)(CC)CC1CCCC2=CCC(P(=O)(c3ccccc3)c3ccccc3)CC21 (configuration not stated) | 9.64 µM (inactive) | 17.9 µM (inactive) | 15.4 µM (inactive) | 11.5 µM (inactive) | 11.2 µM (inactive) | 9.08 µM (inactive) | 13.6 µM (inactive) | 5.81 µM (inactive) | 23.8 µM (inactive)
12 | CC(=O)O/N=C(/C)c1ccccc1O | > 100 µM (inactive) | > 100 µM (inactive) | > 100 µM (inactive) | > 100 µM (inactive) | > 100 µM (inactive) | > 100 µM (inactive) | – | > 100 µM (inactive) | > 100 µM (inactive)
13 | C1OC1C1CO1 (configuration not stated) | – | 58.9 µM (inactive) | 87.3 µM (inactive) | 98.2 µM (inactive) | > 100 µM (inactive) | 10.4 µM (inactive) | – | > 100 µM (inactive) | > 100 µM (inactive)
14 | Cc1ccc(-n2c3nc(=O)n(C)c(=O)c-3nc3ccccc32)cc1 | 36 µM (inactive) | – | 30.5 µM (inactive) | 5.27 µM (inactive) | 27.6 µM (inactive) | 4.3 µM (inactive) | – | 25.4 µM (inactive) | 14.7 µM (inactive)
15 | SCc1ccc(-c2ccc(CS)cc2)cc1 | 14.4 µM (inactive) | 18.6 µM (inactive) | 18.3 µM (inactive) | 23.6 µM (inactive) | 17 µM (inactive) | 24.2 µM (inactive) | – | 20.6 µM (inactive) | 16.4 µM (inactive)
16 | Nc1nc(OCc2ccccc2)c2nc[nH]c2n1 [6-O-BENZYLGUANINE] | 93.3 µM (inactive) | 198 µM (inactive) | 79.8 µM (inactive) | 85.7 µM (inactive) | 64.6 µM (inactive) | 93.1 µM (inactive) | 69.7 µM (inactive) | – | 87.3 µM (inactive)
